Measured values from patent US20240270743A1, “TETRAHYDROPYRAZOLOPYRIDINE-ANALOG LIGANDS OF NLRX1 AND USES THEREOF” (LANDOS BIOPHARMA, INC., priority 2021, published 2024).

Key:
[1] = tested on: CD4+ T cells; experiment: Immunological screening in vitro in CD4+ T cells (flow cytometry); assay type: cell-based, C57BL/6 mice; settings: 100 nanomolar, 24 h, anti-CD3/CD28, PMA and ionomycin last 6 h; for production of TNFα / percentage of TNFα+ CD4+ T cells: relative to vehicle control (FIG. 3A); for production of IFNγ / percentage of IFNγ+ CD4+ T cells: relative to vehicle control (FIG. 3B)
From the text: Cell culture. Spleens were excised from C57BL/6 mice. Spleens were crushed between the frosted ends of microscope slides and filtered to provide a cellular suspension. Red blood cells were lysed through hypotonic lysis. Remaining cells were washed and filtered. CD4+ T cells were enriched within the suspension using magnetic sorting based negative selection. Cells were collected and plated within 96 well plates coated with anti-CD3/CD28 and cultured in the presence of LABP-72-4, LABP-72-38, LABP-72-56, LABP-72-69 at 0 or 100 nanomolar for 24 h. During the last 6 h of culture, cells were stimulated with phorbol 12-myristate-13-acetate (PMA) and ionomycin.
Immunological analysis. Cells were collected from 96 well plates and stained with a cocktail of antibodies for immunophenotyping by flow cytometry. Culture supernatant was collected and assayed for cytokine concentrations by cytometric bead array. Data was captured on a BD FACS Celesta and analyzed using FACSDiva.

[2] = tested on: bleomycin mouse model of pulmonary fibrosis; experiment: Bleomycin-induced model of pulmonary fibrosis; assay type: in vivo, C57BL/6 mice; settings: 50 mg/kg once daily oral gavage from day 7, lungs 2 weeks after bleomycin
Experimental: Bleomycin model. C57BL/6 mice were anesthetized by isoflurane and intratracheally administered 1 mg/kg bleomycin at day 0. LABP-72-38 was prepared within a 0.5% methylcellulose (12-15 cP) solution. Dosage used was 50 mg/kg delivered once daily, by oral gavage beginning 7 days after bleomycin challenge. Lungs were collected 2 weeks after bleomycin challenge.
Flow Cytometry. Lungs were collected into RPMI/FBS buffer containing collagenase (300U/mL) and DNase (50U/mL) for digestion. Tissues were digested for 45 minutes under stirring at 37° C. Resultant cellular suspensions were filtered through 100 μm strainers, and centrifuged (300× g, 8 min). Red blood cells were lysed from the cellular suspensions. Cells were filtered and washed in fresh RPMI. Cells were labeled with mixtures of extracellular (CD45, CD3, CD4, CD8, CD19, NK1.1, F4/80, CD11b, Gr1) and intracellular (IL21) antibodies in a sequential live staining in 96-well plates. Data was acquired using a FACS Celesta flow cytometer with FACSDiva software.

[3] = tested on: high fat diet induced obesity model; experiment: High fat diet-induced model of obesity; assay type: in vivo, C57BL6 mice; settings: 10 mg/kg daily oral gavage for 4 weeks
Experimental: Mouse model. C57BL6 mice were challenged with 16 weeks of high fat feeding by ad libitum exposure to rodent diet chow containing 60% kcal from fat. After 12 weeks of challenge, mice were treated daily with LABP-72-38 at 10 mg/kg for 4 weeks. Treatment was delivered by oral gavage. Mice were weighed weekly. Blood glucose levels were measured by glucometer on blood collected from the tail vein. After 16 weeks of diet, livers were excised and weighed. Weights were normalized to the total body weight.

[4] = tested on: OVA-induced model of asthma; experiment: OVA-induced model of asthma; assay type: in vivo, BALB/c mice; settings: 50 mg/kg daily by oral gavage, days 14-17, day 18
Experimental: OVA-induced model. BALB/c mice were immunized with 10 μg of ovalbumin (OVA) in aluminum hydroxide gel by intraperitoneal injection on day 0 and 7 of the experiment. Mice were then exposed to OVA (8% w/v) by aerosolization for 25 minutes daily between days 14 and 17. Treatment with LABP-72-38 (50 mg/kg) or vehicle control occurred daily between days 14 and 17 by oral gavage. An unchallenged negative control group was included for comparison. Dosage was calculated based off mean body weights. Immunological analysis. Lungs were collected on day 18 (OVA) or day 27 (HDM). Lung tissue was minced and digested in RPMI supplemented with FBS, HEPES, and calcium chloride containing 300 U/mL collagenase and 50 U/mL DNase for 45 minutes at 37° C. After filtration, red blood cells were lysed. Cells were labeled with mixtures of extracellular (CD45, CD3, CD4, CD8, MHCII, CD11b, CD11c, SiglecF, Ly6C, Ly6G) antibodies in a sequential live staining in 96-well plates in preparation for flow cytometry. Data was captured on a BD FACS Celesta and analyzed using FACSDiva.

[5] = tested on: house dust mite model of asthma; experiment: House dust mite (HDM)-induced model of asthma; assay type: in vivo, BALB/c mice; settings: 20 mg/kg daily intranasal, 3 weeks of house dust mite challenge
Experimental: HDM-induced model. BALB/c mice were sensitized to house dust mite with 25 μg administered daily by intranasal instillation for five days. Challenge with house dust mite (25 μg/d) occurred for 5 consecutive days for the following three weeks. Treatment with LABP-72-38 (20 mg/kg) or vehicle control occurred daily during this three-week period. An unchallenged negative control group was included for comparison. Immunological analysis. Lungs were collected on day 18 (OVA) or day 27 (HDM). Lung tissue was minced and digested in RPMI supplemented with FBS, HEPES, and calcium chloride containing 300 U/mL collagenase and 50 U/mL DNase for 45 minutes at 37° C. After filtration, red blood cells were lysed. Cells were labeled with mixtures of extracellular (CD45, CD3, CD4, CD8, MHCII, CD11b, CD11c, SiglecF, Ly6C, Ly6G) antibodies in a sequential live staining in 96-well plates in preparation for flow cytometry. Data was captured on a BD FACS Celesta and analyzed using FACSDiva.

| Compound | production of TNFα / percentage of TNFα+ CD4+ T cells [1] | production of IFNγ / percentage of IFNγ+ CD4+ T cells [1] | proportions of neutrophils in the lungs ([2]; relative to vehicle (FIG. 6A)) | proportions of IL21+ cells in the lungs ([2]; relative to vehicle (FIG. 6B)) | blood glucose level ([3]; 16 weeks high fat diet (FIG. 7A)) | body weight normalized liver weight ([3]; 16 weeks high fat diet, compared to vehicle (FIG. 7B)) | percentage of eosinophils within the lung ([4]; relative to vehicle control (FIG. 4A)) | concentrations of anti-OVA IgE antibodies in the serum ([4]; relative to vehicle control (FIG. 4B)) | percentage of eosinophils within the lung ([5]; relative to vehicle control (FIG. 5A)) | percentage of neutrophils within the lung ([5]; relative to vehicle control (FIG. 5B)) |
| --- | --- | --- | --- | --- | --- | --- | --- | --- | --- | --- |
| O=C(O)Cc1cncc(N2CCc3nn(-c4cc(F)cc(F)c4)cc3C2=O)c1 [LABP-72-4] | significantly reducing | significantly reducing | – | – | – | – | – | – | – | – |
| O=C(O)Cc1cncc(N2CCc3nn(-c4cc(F)cc(F)c4)cc3C2=O)c1 [LABP-72-38, 2-(5-(2-(3,5-difluorophenyl)-4-oxo-2,4,6,7-tetrahydro-5H-pyrazolo[4,3-c]pyridin-5-yl)pyridin-3-yl)acetic acid] | – | – | decreased | decreased | reduced | reduced | reduced | reducing | reduced | reduced |
| O=C(O)Cc1ccc(N2CCc3c(cnn3-c3cc(F)cc(F)c3)C2=O)cn1 [LABP-72-69, 2-(5-(1-(3,5-difluorophenyl)-4-oxo-1,4,6,7-tetrahydro-5H-pyrazolo[4,3-c]pyridin-5-yl)pyridin-2-yl)acetic acid] | significantly reducing | significantly reducing | – | – | – | – | – | – | – | – |
